According to BindingDB's records for patent US20230278983 (Universite Claude Bernard Lyon 1, 2023):

Biological target: Casein kinase II subunit alpha (Homo sapiens, UniProt P68400)
Assay: Radiometric Kinase Assay

Chain of Casein kinase II subunit alpha (P68400 whole entry): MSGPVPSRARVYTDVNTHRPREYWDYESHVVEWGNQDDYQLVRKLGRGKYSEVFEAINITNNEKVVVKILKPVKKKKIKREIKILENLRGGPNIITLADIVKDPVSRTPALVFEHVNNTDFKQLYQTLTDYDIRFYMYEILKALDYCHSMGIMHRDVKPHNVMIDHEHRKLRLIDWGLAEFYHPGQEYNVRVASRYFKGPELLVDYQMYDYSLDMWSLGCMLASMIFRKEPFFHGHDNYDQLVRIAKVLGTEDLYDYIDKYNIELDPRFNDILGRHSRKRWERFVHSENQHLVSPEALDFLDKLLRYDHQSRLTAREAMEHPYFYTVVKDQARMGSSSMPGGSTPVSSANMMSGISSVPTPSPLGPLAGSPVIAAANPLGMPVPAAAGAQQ

Question: How did the IC50 turn out when `CC(C)COC(=O)c1[nH]c2ccc(F)cc2c1-c1cn(CC2CCN(CCNS(=O)(=O)c3ccc(-c4ccccc4C#N)cc3)CC2)nn1` [US20230278983, Code AB1076] was run?
Answer: 46 nM
